Data: patent publication US9221822B2, “Thiazolopyrimidine modulators as immunosuppressive agents” (Katholieke Universiteit Leuven, K.U.Leuven R&D, priority 2009, dated 2015)

Tested on: Human peripheral blood mononuclear cells (PBMCs) as Responder cells, RPMI 1788 Stimulator cells
Assay: Mixed Lymphocyte Reaction (MLR) test
Type: cell-based
Conditions: Homo sapiens, RPMI-1788, lowest concentration giving 50% inhibition of the MLR; 6 days coculture, 3H-thymidine incorporation
Method in brief: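 Human PBMC responders (0.12×10^6) were cocultured 6 days with mitomycin C-treated RPMI 1788 stimulators (0.045×10^6) and compound in RPMI 1640 with 10% FCS, in triplicate. A ^3H-thymidine pulse on day 5, harvested 18 h later, measured proliferation (cpm), converted to % inhibition versus a compound-free MLR.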

Row | Structure (SMILES) | IC50 [nM]
1 | Nc1nc(N2CCN(S(=O)(=O)Cc3ccccc3)CC2)c2cc(-c3ccc(F)cc3)sc2n1 [Example 344, 4-(4-(benzylsulfonyl)piperazin-1-yl)-6-(4-fluorophenyl)thieno[2,3-d]pyrimidin-2-amine] | > 10000
2 | Nc1nc(N2CCOCC2)c2nc(-c3ccc(F)cc3)sc2n1 [Example 33, 2-(4-fluorophenyl)-7-morpholino-thiazolo[5,4-d]pyrimidin-5-amine] | > 10000
3 | COc1ccc(OCC(=O)N2CCN(c3nc(N)nc4sc(-c5cccnc5)nc34)CC2)cc1 [Example 271, 1-(4-(5-amino-2-(pyridin-3-yl)thiazolo[5,4-d]pyrimidin-7-yl)piperazin-1-yl)-2-(4-methoxyphenoxy)ethanone] | 12
4 | Nc1nc(N2CCN(C(=O)COc3ccc(Cl)cc3)CC2)c2nc(CCc3ccc(F)cc3)sc2n1 [Example 49, 1-(4-(5-amino-2-(4-fluorophenethyl)-thiazolo[5,4-d]pyrimidin-7-yl)piperazin-1-yl)-2-(4-chlorophenoxy)ethanone] | 4400
5 | O=C(O)c1nc(N2CCN(C(=O)COc3ccc(Cl)cc3)CC2)c2cc(-c3ccc(F)cc3)sc2n1 [Example 357, 4-(4-(2-(4-chlorophenoxy)acetyl)piperazin-1-yl)-6-(4-fluorophenyl)thieno[2,3-d]pyrimidine-2-carboxylic acid] | > 10000
6 | Nc1nc(N2CCN(C(=O)COc3ccc(Cl)cc3)CC2)c2cc(-c3ccc(F)cc3)sc2n1 [Example 326, 1-(4-(2-amino-6-(4-fluorophenyl)thieno[2,3-d]pyrimidin-4-yl)piperazin-1-yl)-2-(4-chlorophenoxy)ethanone] | 700
7 | CCOc1nc(N)nc2sc(-c3ccc(F)cc3)nc12 [Example 30, 7-ethoxy-2-(4-fluorophenyl)thiazolo[5,4-d]pyrimidin-5-amine] | > 10000
8 | Cc1nc(N2CCN(C(=O)COc3ccc(Cl)cc3)CC2)c2cc(-c3ccc(F)cc3)sc2n1 [Example 325, 2-(4-chlorophenoxy)-1-(4-(6-(4-fluorophenyl)-2-methylthieno[2,3-d]pyrimidin-4-yl)piperazin-1-yl)ethanone] | 3390
9 | Cc1cccc(NC(=O)N2CCN(c3nc(N)nc4sc(CCc5ccc(F)cc5)nc34)CC2)c1 [Example 133, 5-amino-2-[2-(4-fluorophenyl)ethyl]-7-(4-m-tolylcarbamoylpiperazin-1-yl)-thiazolo[5,4-d]pyrimidine] | > 10000
10 | Cc1cccc(NC(=O)N2CCCN(c3nc(N)nc4[nH]c(-c5ccc(F)cc5)nc34)CC2)c1 [Example 422, 4-(2-amino-8-(4-fluorophenyl)-9H-purin-6-yl)-N-m-tolyl-1,4-diazepane-1-carboxamide] | 1180
11 | Nc1nc(N2CCN(C(=O)Cc3ccc(Cl)cc3)CC2)c2nc(CCc3ccc(F)cc3)sc2n1 [Example 132, 5-amino-2-[2-(4-fluorophenyl)ethyl]-7-(4-[2-(4-chlorophenyl)acetyl]piperazin-1-yl)-thiazolo[5,4-d]pyrimidine] | 440
12 | Cc1cccc(NC(=O)N2CCN(c3nc(N)nc4sc(-c5ccc(F)cc5)cc34)CC2)c1 [Example 359, 4-(2-amino-6-(4-fluorophenyl)thieno[2,3-d]pyrimidin-4-yl)-N-m-tolylpiperazine-1-carboxamide] | 2800
13 | Nc1nc(N2CCN(C(=O)COc3ccc(Cl)cc3)CC2)c2nc(C3(c4ccc(Cl)cc4)CC3)sc2n1 [Example 117, 5-amino-7-[4-(4-chlorophenoxyacetyl)piperazin-1-yl]-2-(1-(4-chlorophenyl)cyclopropyl)thiazolo[5,4-d]pyrimidine] | 2510
14 | CC(C)(Oc1ccc(Cl)cc1)C(=O)N1CCN(c2nc(N)nc3sc(-c4cccnc4)nc23)CC1 [Example 274, 1-(4-(5-amino-2-(pyridin-3-yl)thiazolo[5,4-d]pyrimidin-7-yl)piperazin-1-yl)-2-(4-chlorophenoxy)-2-methylpropan-1-one] | > 10000
15 | Nc1nc(N2CCN(C(=O)COc3ccc(Cl)cc3)CC2)c2nc(-c3ccc(C(F)(F)F)cc3)[nH]c2n1 [Example 394, 1-(4-(2-amino-8-(4-(trifluoromethyl)phenyl)-9H-purin-6-yl)piperazin-1-yl)-2-(4-chlorophenoxy)ethanone] | 630
16 | Nc1nc(N2CCN(C(=O)COc3ccc(Cl)cc3)CC2)c2nc(-c3ccc(Cl)cc3)sc2n1 [Example 123, 5-amino-7-[4-(4-chlorophenoxyacetyl)piperazin-1-yl]-2-(4-chlorophenyl)thiazolo[5,4-d]pyrimidine] | 260
17 | Nc1nc(N2CCN(C(=O)COc3ccc(Br)cc3)CC2)c2nc(Cc3ccc(F)cc3)sc2n1 [Example 231, 1-(4-(5-amino-2-(4-fluorobenzyl)thiazolo[5,4-d]pyrimidin-7-yl)piperazin-1-yl)-2-(4-bromophenoxy)ethanone] | 550
18 | Nc1nc(N2CCN(C(=O)COc3cccc([N+](=O)[O-])c3)CC2)c2nc(-c3ccc(F)cc3)oc2n1 [Example 193, 5-amino-2-(4-fluorophenyl)-7-(4-[2-(3-nitrophenoxy)acetyl]-piperazin-1-yl)-oxazolo[5,4-d]pyrimidine] | 700
19 | Cn1c(-c2ccc(F)cc2)nc2c(N3CCN(C(=O)COc4ccc(Cl)cc4)CC3)nc(N)nc21 [Example 430, 1-(4-(2-amino-8-(4-fluorophenyl)-9-methyl-9H-purin-6-yl)piperazin-1-yl)-2-(4-chlorophenoxy)ethanone] | 360
20 | Cc1cccc(OCC(=O)N2CCN(c3nc(N)nc4sc(-c5ccc(F)cc5)nc34)CC2)c1 [Example 211, 1-(4-(5-amino-2-(4-fluorophenyl)thiazolo[5,4-d]pyrimidin-7-yl)piperazin-1-yl)-2-(m-tolyloxy)ethanone] | 52
21 | Nc1nc(N2CCN(C(=O)Nc3ccc(Cl)cc3)CC2)c2cc(-c3ccccc3)sc2n1 [Example 331, 4-(2-amino-6-phenylthieno[2,3-d]pyrimidin-4-yl)-N-(4-chlorophenyl)piperazine-1-carboxamide] | 6700
22 | Nc1nc(N2CCN(CC(=O)N3CCOCC3)CC2)c2nc(-c3ccc(F)cc3)[nH]c2n1 [Example 411, 2-(4-(2-amino-8-(4-fluorophenyl)-9H-purin-6-yl)piperazin-1-yl)-1-morpholinoethanone] | > 10000
23 | Nc1nc(N2CCN(C(=O)Nc3ccc(Cl)cc3)CC2)c2nc(-c3cccnc3)sc2n1 [Example 277, 4-(5-amino-2-(pyridin-3-yl)thiazolo[5,4-d]pyrimidin-7-yl)-N-(4-chlorophenyl)piperazine-1-carboxamide] | 24
24 | Nc1nc(N2CCN(C(=O)COc3ccc(Cl)cc3)CC2)c2nc(CCc3ccccc3)oc2n1 [Example 189, 5-amino-2-(2-phenylethyl)-7-[4-(4-chlorophenoxyacetyl)piperazin-1-yl]oxazolo[5,4-d]pyrimidine] | 5530
25 | Nc1nc(N2CCN(C(=O)C3CCCCC3)CC2)c2cc(-c3ccc(F)cc3)sc2n1 [Example 345, (4-(2-amino-6-(4-fluorophenyl)thieno[2,3-d]pyrimidin-4-yl)piperazin-1-yl)(cyclohexyl)methanone] | > 10000
26 | COc1ccc(OCC(=O)N2CCN(c3nc(N)nc4sc(CCc5ccc(Br)cc5)nc34)CC2)cc1 [Example 298, 1-(4-(5-amino-2-(4-bromophenethyl)thiazolo[5,4-d]pyrimidin-7-yl)piperazin-1-yl)-2-(4-methoxyphenoxy)ethanone] | 1190
